Entries after “also recorded” stand apart in the source; their conditions may differ. Like-named read-outs stand apart in the source and are kept apart here.
Columns and labels:
DNA [1] = test: Dark complex formation (intercalation) with DNA in the ground state, binding parameters; design: K (association constants) of the complexes with DNA: unit not given here; settings: for K (association constants) of the complexes with DNA / 1/n (frequency of binding sites): in vitro, ground state; for K (association constants) of the complexes with DNA: McGhee and Von Hippel method; for 1/n (frequency of binding sites): molecules bound per nucleotide; for 1/n (frequency of binding sites), relative / K (association constants), relative: relative (ang = 100)
Description: Dark complex formation: It is known from F. Dall'Acqua, et al. Chem.-Biol. Interactions 21,103 (1978) that the intercalated complex formed by furocoumarins with DNA strongly affects the successive photoaddition increasing the rate of photobinding. […] These parameters have been determined according to the method of McChee and Von Hippel, J.Mol.Biol, 86, 469 (1974).
(a) Determined according to Mc Ghee and Von Hippel, J. Mol. Biol.,

DNA [2] = test: Photobinding to DNA, rate constants of the photoreactions; type: biochemical; settings: for Rate constants of the photoreactions with DNA: in vitro, UV-A irradiated; for Rate constants of the photoreactions with DNA, relative: relative (ang = 100)
Description: (b) Determined according to F. Dall'Acqua, S. Marciani, F. Zambon and G.
Rodighiero, Photochem. Photobiol., 29,489(1979).
Photobinding capacity to DNA: The introduction of one or two methyl groups in the molecule of angelicin leads to a strong increase of the photobinding to DNA; see Table II. […] Photobiol., 29, 489 (1979).

[3] = system: DNA synthesis in Ehrlich ascites tumor cells; test: Inhibition of DNA synthesis (and DNA and RNA synthesis) on irradiation at 365 nm; type: cell-based; settings: relative (ang = 100)
Description: (§1) Photobiological activity: A significant test for assessing photobiological activity of alkylangelicins is the study of their capacity to inhibit DNA and RNA synthesis in Ehrlich ascites tumor cells. In Table III the capacity of inhibition is expressed as ID50, that is the irradiation does, in terms of quanta at 365 nm, necessary to inhibit in these cells the 50% of the DNA and RNA synthesis in the presence of a constant amount of alkylangelicin. […] Moreover, in general it can be observed that in this simple biological system a close correlation exists between photobiological activity and the capacity to induce photochemical lesions in DNA, that is photoreactivity.

[4] = system: RNA synthesis in Ehrlich ascites tumor cells; test: Inhibition of RNA synthesis on irradiation at 365 nm; type: cell-based; settings: relative (ang = 100)
Description: as §1

epidermal DNA synthesis [5] = test: Inhibition of epidermal DNA synthesis in the mouse in vivo after topical application and UV-A irradiation; settings: light or radiation study, 0.01% methanol solutions, UV-A 9 J/cm^2, read-out: Percent inhibition ± standard error of epidermal DNA synthesis
Description: DNA samples were dissolved in water and their specific radioactivity determined.
Each drug substance was studied using at least six mice.

epidermal DNA synthesis [6] = test: Inhibition of the synthesis of epidermal DNA of the mouse in vivo after oral administration and UV-A irradiation; settings: oral 0.25 g/Kg, UV-A 9 J/cm^2 after two hours
Description: Considering that the topical skin tests carried out on mice to evaluate the effectiveness of these substances has yielded data which correlate well with the clinical data, such a test conveniently modified has been adopted to evaluate the effectiveness of the alkylangelicins after oral administration followed by UV-A irradiation.
In this connection experiments have been conducted using mice 20±2 g in weight, that were starved for three hours before oral administration of the alkylangelicins. Groups of 5 mice were fed a suspension of 0.5% methylcellulose in water containing the alkylangelicins of the invention at a dosage of 0.25 g/Kg. The animals were kept in the dark for two hours, that is for the time necessary for absorption, systemic distribution and localization of the drug at the level of the skin. The animals were then irradiated with UV-A light, 9 J/cm^2. Later the animals were sacrificed and the inhibition of the epidermal DNA synthesis was tested; the results obtained are reported in Table VI. The skin on the back, protected from light by a dark paper, was assumed as a control. As a reference 8-MOP, used under the same experimental conditions, was also tested. The significant activity of the alkylangelicins according to the present invention, higher than that of 8-MOP, in inhibiting the epidermal DNA synthesis in mice upon oral administration allows one to consider these compounds as also being effective for oral administration to humans for photochemotherapy of psoriasis and of other skin diseases that are characterized by cellular hyperproliferation.

psoriasis = test: Topical photochemotherapy of psoriasis in patients; type: in vivo, human; settings: for No. of patients with Excellent result / No. of patients with Fair result / No. of patients with Good result / No. of patients with Poor result: topical 0.1% w/v + UV-A; for No. of patients with Excellent result: Excellent = 90% clearance; for No. of patients with Fair result: Fair = 50-70%; for No. of patients with Good result: Good = 70-90%; for No. of patients with Poor result: Poor 40%
Description: Clinical data: The effectiveness of certain representative alkylangelicins according to the present invention, specifically 5-methylangelicin, 4,5'-dimethylangelicin, 4'-hydroxymethyl-4,5'-dimethylangelicin, 4'-hydroxymethyl-4,5'-dimethylangelicin and 4,5-dimethylangelicin, has been tested by measuring their capacity to resolve psoriasis in various patients. For a direct comparison the efficacy of the parent unsubstituted angelicin and that of three very effective linear furocoumarins, that is 8-methoxypsoralen (8-MOP), 5-methoxypsoralen (5-MOP), and 4,5',8-trimethylpsoralen (TMP) were also tested.
In each treatment four areas of the affected skin were used;
(a) In the first area an alcohol lotion, containing 10% glycerine, of the tested compound (0.1% w/v) was applied until a concentration of […] was reached then left to evaporate by the heat of the body. After half an hour the area was irradiated with high intensity UV-A emitting low pressure mercury fluorescent lamps with a wavelength of 320-400 nm. The irradiation doses were selected in the range of 4.5-13 J/cm^2 for each application as a function of the sensitivity of the skin of the patients; when the skin sensitivity was higher, the light doses were lower and vice versa.
(b) A second area was treated with an alcohol solution of the drug as in (a) but it was covered and maintained in the dark.
(c) A third area, where the drug was not applied, was irradiated as in (a) but in general with higher UV-A doses.
(d) A fourth area was not treated at all, neither with the drug, not with UV-A.
The treatment with the alkylangenlicins referred to above was repeated 5 time a week for two or more weeks; the total number of treatments was between 8 and 20 per subject. In some cases, as for instance with 5-methylangelicin, a good clearing of psoriasis was observed after 8 treatments.
In order to avoid induction of photosensitization processes such as redness and erythema in the reference tests made with the linear furocoumarins 8-MOP, 5-MOP, TMP, lower light doses were used than in the case of alkylangelicins, the treatments were repeated at a frequency of no more than three times a week.

DNA [7] = settings: (psr = 100); footnote (c), reference compounds; cited from earlier work
melamin pigmentation = settings: Table I; cited from earlier work
[8] = cited from earlier work
DNA [9] = settings: cited from earlier work; for DNA intercalation property / Interstrand cross-linking induction in DNA / Monoadduct forming property: Table I; for Photobinding capacity to DNA: known furocoumarins
DNA synthesis = settings: Table I; cited from earlier work
[10] = known furocoumarins, Table I; cited from earlier work
[11] = Table I; cited from earlier work
Acute toxicity in mice = settings: mouse, in vivo, po
skin = test: Relative skin phototoxicity; settings: (psr = 100)
DNA [12] = test: Capacity to form inter-strand cross-linkages in DNA; type: biochemical; settings: (psr = 100)
Description: All these compounds were not suitable to photoinduce in DNA inter-strand cross-linkages. […] These tests were carried out according to the method of F. Bordin et al., Photochem. Photobiol., 29,1063 (1979).

E. coli wild type strain = settings: E. coli wild type strains; cited from earlier work
E. coli WP2 trp^- uvrA^- = settings: cited from earlier work
[13] = system: normal human and guinea pig skin; settings: in vivo; cited from earlier work
[14] = system: Salmonella typhimurium TA 100; test: Ames test; type: cell-based; settings: Salmonella typhimurium TA 100 his G46 (uvrB^- rfa) pKM101; versus 4,5'-dimethylangelicin

Structure (SMILES) | K (association constants) of the complexes with DNA (DNA [1]) | 1/n (frequency of binding sites) (DNA [1]) | 1/n (frequency of binding sites), relative (DNA [1]) | K (association constants), relative (DNA [1]) | Rate constants of the photoreactions with DNA (DNA [2]) [K × 10^-2 × min^-1] | Rate constants of the photoreactions with DNA, relative (DNA [2]) | inhibition of DNA synthesis, relative [3] | inhibition of RNA synthesis, relative [4] | inhibition in vivo at 0.01 % (epidermal DNA synthesis [5]) [%] | Percent inhibition ± standard error of epidermal DNA synthesis (epidermal DNA synthesis [6]) [%] | No. of patients with Excellent result (psoriasis) [patients] | No. of patients with Fair result (psoriasis) [patients] | No. of patients with Good result (psoriasis) [patients] | No. of patients with Poor result (psoriasis) [patients] | Stimulation of melamin pigmentation (melamin pigmentation) | DNA intercalation property (DNA [9]) | Interstrand cross-linking induction in DNA (DNA [9]) | Monoadduct forming property (DNA [9]) | Photobinding capacity to DNA (DNA [9]) | Relative skin phototoxicity (skin) | also measured
COc1c2occc2cc2ccc(=O)oc12 [8-MOP, 8-methoxypsoralen, reference compound] | 740 | 0.128 | 203 | 132 | 2.3 | 209 | 249 | 93 | 61 ± 1.6 | 39.1 ± 3.7 | 3 | 2 | 3 | 2 | strong, well known | strong | strong, well known | known, strong | known, strong | 71 | capacity to form interstrand cross-linkages (DNA [7]): 63; Carcinogenicity (oral) ([8]; oral): weak; Carcinogenicity (topical) ([8]; topical): strong; DNA synthesis inhibiting property (DNA synthesis): known, strong; Photosensitizing activity [10]: known, strong; Mutagenicity [11]: known, strong; LD50 (Acute toxicity in mice): 800 mg/kg
O=c1ccc2ccc3occc3c2o1 [angelicin, reference compound] | 560 | 0.063 | 100 | 100 | 1.1 | 100 |  |  | 17.5 ± 2.5 | 28 ± 2 | 0 | 0 | 0 | 8 | absent | evident | absent | weak | low capacity of photobinding to DNA; also recorded: low photobinding capacity towards DNA | 0 | capacity to form interstrand cross-linkages (DNA [12]): 0; Photobinding capacity to DNA (DNA [9]; listed as Angelicin): weak; DNA synthesis inhibiting property (DNA synthesis): weak; mutagenic activity / mutation frequency, wild type (E. coli wild type strain): not detectable; mutagenic activity, strains deficient in known repair functions (E. coli WP2 trp^- uvrA^-): Only very low mutagenic activity; Photosensitizing activity [10]: absent; Mutagenicity [11]: weak; erythema or hyperpigmentation on the skin [13]: does not provoke either erythema or hyperpigmentation on the skin
Cc1cc2occc2c2oc(=O)ccc12 [5-methylangelicin] | 1560 | 0.071 | 112 | 278 | 3.41 | 298 | 275 | 281 | 47.5 ± 1.19 |  | 2 | 0 | 5 | 0 |  |  |  |  |  | 0 | capacity to form interstrand cross-linkages (DNA [12]): 0; mutagenic activity (Ames test) [14]: of the same order of magnitude as that of 4,5'-dimethylangelicin; efficacy in psoriasis patients (in words) (psoriasis; topical + UV-A): very active, probably more active than the same amount of 8-MOP; number of treatments to good clearing of psoriasis (psoriasis; topical + UV-A, 5 times a week, in some cases): 8 treatments; LD50 (Acute toxicity in mice): 2000 mg/kg

From US4312883A, “Furocoumarin for the photochemotherapy of psoriasis and related skin diseases” (Consiglio Nazionale delle Ricerche, priority 1979, dated 1982)
